In a melting point compilation (Tetko et al.; mined from patent text by program, amines drawn as free bases though some values may be those of a salt):

melting point [°C]	SMILES
89 to 91	CC(=O)NC[C@H]1CN(c2ccc3c(c2)CC[C@@H](C)N3C=O)C(=O)O1
146 to 148	O=C(Nc1ccc(Oc2ccccc2)cc1)N1CCN(c2ncnc3cc([N+](=O)[O-])ccc23)CC1
83.5 to 85.5	O=[N+]([O-])c1ccc(C2(Br)CCCCC2)cc1
231	CNC(=O)Cc1c(C(=O)c2cc(C)ccn2)[nH]c2cc(Cl)ccc12
190	COn1c(Br)c(Br)c(C#N)c1-c1ccc(Cl)cc1
73 to 75	COc1ccc2c(O)cccc2c1
197 to 199	CCc1nc(N)nc(N)c1-c1ccc(N(Cc2ccccc2)Cc2ccccc2)c([N+](=O)[O-])c1
136 to 141	COc1cc2c(c3c1C1CCC3CC1)OC(COS(=O)(=O)c1ccc(C)cc1)C2 (stereo not given)
84	CN(Cc1ccc(C2=NCCN2)cc1)C(=O)OCc1ccccc1
94 to 97	CC(C)N1CC(COc2ccc([N+](=O)[O-])c(C=O)c2)OC1=O (stereo not given)
160 to 162	CCNC(=O)C(=CNc1ccc(I)cc1)C(=O)c1ccccc1Cl
78 to 81	CCCN(c1nc(-c2ccc(Cl)cc2Cl)c(C)s1)C(c1ccccc1)C1CC1 (stereo not given)
184 to 187	Cc1c(F)c(F)c(C(=O)NC(C(C)C)C(C)C)c(F)c1F
126 to 129	CCOC(=O)c1ccc(NCCOc2ccccc2)cc1
146 to 151	COCCC(=O)N(Cc1ccc(OC(F)(F)F)cc1)c1cc(Cl)cc(-c2nnn[nH]2)c1
104 to 106	N#CSc1cc(-c2ccccc2)c(O)c(-c2ccccc2)c1
127	CC(=O)OC1CSC(Oc2cccc(I)c2)C(OC(C)=O)C1OC(C)=O (stereo not given)
139 to 140	COc1cc(C=C(N)C(C)=O)ccc1OCC(O)CNC(C)C (stereo not given)
35	CSc1nccc(C(C)=O)n1
220 to 222	CC(=O)Nc1cc(O)c(C(=O)NC2CCN(Cc3ccccc3)CC2)cc1[N+](=O)[O-]
315 to 317	O=c1cc(-c2ccncc2)nc2n1Cc1ccccc1N2
191 to 193	CCOC(=O)N1CCc2nc(-c3ccncc3)cc(=O)n2CC1
148 to 151	Cc1cnc(CCCCNc2ncc(Cc3ccc(C)nc3)c(=O)[nH]2)c(Br)c1
79 to 81	CCCCCCCCCCCCCCCCCCOc1cc(OCCCOc2ccccc2)cc(C(=O)O)c1
68	CCCN(CCC)C(=O)NC(CS)Cc1ccccc1 (single isomer, unassigned; (+))

melting point [°C]	SMILES
158 to 160	O=C(c1ccc(-c2ccc3nnn(Cc4ccc5ncccc5c4)c3n2)cc1)N1CCN(CCO)CC1
216 to 218	Cn1nc(C(F)(F)F)c(C(=O)O)c1N
251	Cn1ncc(C(=O)N2CCCC2)c1C(=O)Nc1ccc2nc(-c3cccnc3)nn2c1
128 to 129	CCOc1cc(C(CC(C)=O)N2C(=O)c3cccc(NC(C)=O)c3C2=O)ccc1OC (stereo not given)
144 to 146	CCOC(=O)[C@@H](O)[C@@H]1OC(=O)c2cc(OC)c(OC)cc21
235 to 236	CSc1ccc(-c2csc(NC(C)=O)n2)cc1
327 to 331	N#Cc1c(Cl)c([N+](=O)[O-])cc2[nH]c(=O)c(=O)[nH]c12
50 to 52	O=C(NCCc1ccccc1)C(F)(F)F
136 to 137	CN(C(=O)c1cccc(S(=O)(=O)N(C)c2ccc(Br)cc2)c1)c1ccc(Br)cc1F
> 300	CN(C)C=Nc1ccc(-c2cc3c(Nc4cccc(Cl)c4)ncnc3[nH]2)cc1
187 to 193	CCn1ncnc1COc1nn2c(-c3ccccc3F)nncc2c1-c1ccsc1
97 to 98	CSC(Cc1cnn(-c2c(Cl)cc(C(F)(F)F)cc2Cl)n1)SC
142	CC(C)Oc1n[nH]c(=O)n1C
131	CC(C)c1occc1S(=O)(=O)c1ccc(O)cc1
279 to 280	N#Cc1ccccc1Nc1cc2c(cc1Nc1ccccc1C#N)C(=O)NC2=O
200 to 204	O=S1c2ccccc2Sc2ccc(-c3nnn[nH]3)cc21 (stereo not given)
127 to 131	COc1ccc(NS(=O)(=O)c2cccc3ccccc23)cc1OCCc1ccc2ccccc2c1
159 to 160	COc1cc(OC)c(C(=O)c2cc(Cl)ccc2NC(C)=O)c(OC)c1
144 to 146	CCn1cc(C(=O)NCc2ccc(Cl)cc2)c(=O)c2cc(CCCO)sc21
276 to 278	O=C(NC1CCCCC1)n1cc(F)c(=O)[nH]c1=O
256	Cc1c(Nc2c(C#N)cnc3sc(C(=O)N4CCCC4)cc23)ccc2[nH]ccc12
154 to 156	CCN(CC)c1nc(-c2ccc(OC)cc2)nc2sc(C#N)c(C)c12
281 to 282	COc1cc(OC)c2c(=O)[nH]c(-c3ccc(OCCO)c(-c4ccc(S(C)=O)cc4)n3)nc2c1 (stereo not given)
62	CCCCCCCCCCCCCC(=O)c1c(O)cc(C)c(O)c1CCC

Second part, the molecule before the results:

SMILES	melting point [°C]
O=[N+]([O-])c1cnc(N2CCN3CCC2CC3)nc1	135 to 139
O=C1C(c2ccccc2)=C(c2ccccc2)C(=O)N1C1CCCCC1	159 to 160
Cc1cc2cc(O)ccc2c(Oc2ccc(/C=C/C(=O)O)cc2)c1-c1ccc(O)cc1	162 to 164
Nc1ncc(C(=O)NCc2ccc(C(F)(F)F)cc2)c(N2CCCC2)n1	227 to 228
CC1(C)C(=O)Nc2ccc(-c3coc(C#N)c3)cc21	200 to 201
Nc1nc(-c2ccc(NC(=O)CN(Cc3ccccc3)C(=O)C3CCCCC3)cc2)cs1	214 to 216
Cc1nccn1-c1nc(-c2ccc(Cl)cc2)c(CCCC(=O)NCCCl)o1	131 to 132
COc1ccc2c(c1)c1c3c(c(-c4ccccc4Cl)cc1n2CCC(=O)NS(C)(=O)=O)C(=O)NC3=O	293 to 295
CCN(CC)CCOc1ccc(Nc2ncc3c(n2)N(CC)C(=O)N(c2c(Cl)cccc2Cl)C3)cc1	85
CC(c1cccnc1)n1nnc2cc3c(cc2c1=O)OC1CCCN1C3=O (stereo not given)	195 to 196
O=[N+]([O-])c1ccc(OC(c2ccc(F)cc2)(c2ccc(F)cc2)c2nccs2)cc1C(F)(F)F	133 to 134
O=C1CCC(N2C=Nc3ccccc3C2)C(=O)N1 (stereo not given)	258
CC12CCC3c4ccc(C(=O)O)cc4CCC3C1CCC2C(=O)c1ccc(F)cc1 (stereo not given)	251 to 254
COc1ccc(S(=O)(=O)N2Cc3ccccc3N(C(=O)c3cccc(C(F)(F)F)c3)CC2C(=O)NO)cc1 (stereo not given)	128 to 130
CCCc1c(OCCCOc2ccc(C(=O)O)cc2Br)ccc(C(C)=O)c1O	180 to 182
C[C@H](CO)Nc1nc(SCc2ccccc2)nc2[nH]c(=O)[nH]c12	284
CC#CCOc1cc(Nc2cccc(F)c2F)ncn1	148
Cc1cn(C2CC(ON)C(CO[Si](C)(C)C(C)(C)C)O2)c(=O)[nH]c1=O (stereo not given)	171
O=C(O)CN1C(=O)C(=Cc2ccc(OCc3ccccc3)c(OCc3ccc(F)c(F)c3)c2)SC1=S	231 to 236
COc1ccccc1CCNC(=O)c1ccc2c(c1)C=CC(C)(C)O2	125 to 130
Cc1cc(NC(=O)C(C)(O)COc2ccc(CCCCl)cc2)ccc1[N+](=O)[O-] (stereo not given)	110 to 112
COc1ccc(NN)c(C)c1	105
CCCCNc1cccnc1S(N)(=O)=O	100 to 101
CC(=O)C(C(=O)Nc1ccccc1)C(C)C (stereo not given)	135 to 137
Cc1cc(OS(=O)(=O)c2c(Cl)cccc2Cl)cc2c(C3CCN(C)CC3)c[nH]c12	179
CCOC(=O)C1=C(C)NN=C(CC)C1c1cccc(Cl)c1 (stereo not given)	112

SMILES	melting point [°C]
CCN(CC)C(=O)c1cc2ccc(C)cc2c(-c2ccccc2Cl)n1	162
C=COCCOc1ccc(C=CC(=O)C=Cc2ccc(OCCOC=C)cc2)cc1	124 to 125
COC(=O)CCCC#Cc1cc(Cl)ccc1NS(=O)(=O)c1c(C)noc1C	107 to 109
CCc1nnc(-c2ccc(OC)cc2)n1-c1ccc(C(=O)N(C)C)cc1	136
Clc1ccnc2ncnn12	190
O=C(CBr)c1cccc(Nc2ccc3ccccc3n2)c1	151 to 152
CC1=C(c2cccc(C(F)(F)F)c2)n2ncc(C(N)=O)c2NC1	200 to 202
O=Cc1ccccc1-c1ccc(C(=O)Nc2ccc3cccnc3c2)cc1	258 to 260
CC(C)Sc1nc(C(F)(F)F)c(I)c(=O)[nH]1	212 to 215
CC(=O)Nc1ccc(F)c(-c2ccncc2)c1F	148 to 150
COc1nc2nc(C=C3C(=O)N4C(C(=O)O)=CSC34)cn2c2c1CCC2 (stereo not given)	> 250
O=C1NC(=O)C(Sc2ccc(Br)cc2)S1 (stereo not given)	115 to 117
CN1C2C=C(c3ccc(Cl)c(Cl)c3)CC1CC2 (stereo not given)	44 to 52
CC(=O)n1ccc(=O)c(O)c1C	152 to 160
Fc1ccc(CN2CCCC(Nc3nccc(-c4c(-c5ccc(F)cc5)nc5sccn45)n3)C2)cc1 (stereo not given)	131 to 133
Cc1c(Cl)nnc2c1CN(C(=O)c1ccccc1F)CC2	151 to 153
Nc1ccc(Cn2nc3ccccc3n2)cc1	229 to 230
O=[N+]([O-])c1cc(CS(=O)(=O)CCO)ccc1CS(=O)(=O)CCO	125 to 126
Nc1nc2ccccc2c2c1nc(-c1ccccc1)n2CCCCNC(=O)c1cccnc1	84.5 to 86.1
CC1Cc2cc3c(cc2C(c2ccc([N+](=O)[O-])cc2)=NN1C(=O)CBr)OCO3 (stereo not given)	183 to 186
NS(=O)(=O)c1ccc(-c2noc(-c3cnn4ccc(-c5ccc(C(F)(F)F)cc5)nc34)n2)s1	251
CC(C)Cc1ccc(CCc2cc3c(s2)NC(=S)C(C)N=C3c2ccccc2Cl)cc1 (stereo not given)	188 to 191
CC(C)(C)OC(=O)NC1N=C(c2ccccc2F)c2ccccc2N(CCO)C1=O (racemic)	200
Cc1ncc2c(C#N)c(-c3ccc(S(=O)(=O)N[C@@H](C)C4CC4)cn3)n(C3CCC3)c2n1	155 to 157
CCCCCCOc1cc(CC#N)c(OCCCCCC)cc1CC#N	96 to 97
